Source: patent publication US20090074815A1, “Immunomodulator Compounds as Vaccine Enhancers” (SCICLONE PHARMACEUTICALS, INC., priority 2005, published 2009)
Several values for one entry are separate records, joined by “and”; a condition that tells them apart may be missing. Identical values can stand only once. Like-named read-outs stand apart in the source and are kept apart here.

Tests used:
[1] = test system: IL-2 production by OvA-stimulated splenocytes; experiment: OvA-stimulated production of IL-2 by splenocytes of OvA-immunized mice; settings: OvA/FA
Protocol: The OvA was administered subcutaneously to the crest in a volume of 200 μl. Mice were immunized on day 1 with OvA in complete Freund's adjuvant (CFA; Sigma) and on day 15 with the antigen in incomplete Freund's adjuvant (IFA; Sigma). The immune response was analyzed on day 29. Mice were also immunized with 10 μg/mouse of OvA using Alum as an adjuvant.
Thymuses and spleens from mice of each treatment group were pooled, and then minced with scissors. The minced tissues were suspended in sterile PBS to form cell suspensions, filtered through a double gauze layer and centrifuged. Cells were washed twice with PBS, re-suspended in RPMI-1640 (Sigma) with 2.0 mM of L-glutamine, 50 μM of mercaptoethanol, and 10 μg/ml of gentamycin (complete medium); and cell counts were made. (The splenocyte suspension was washed with a 0.86% solution of NH4Cl to pre-lyse erthrocytes.)
Assessment of Mitogen- and Antigen-Induced Production of Cytokines: Thymic cells (1×10^6/well) in complete medium with 2% FCS were stimulated with ConA (0, 1, and 2 μg/ml). Splenocytes (1×10^6/well) in complete medium with 5% FCS were stimulated with ConA (0, 1, and 5 μg/ml) and with OvA (0-100 μg/ml). […] Supernatants from OvA-stimulated cultures were collected after 72 hours. Supernatants from both cultures were frozen, and kept at 20° C. Concentrations of IL-2, IL-4, IL-10, IL-12R40 and IFNγ in the supernatants were determined by solid-phase EIA with EIA Expansion Kits, available from BD Biosciences (formerly Pharmingen), in accordance with the manufacturer's instructions.

[2] = test system: M. tuberculosis strain H37Rv; type: in vivo, mice; settings: for CFUs of BCG per ml of Lung Homogenate, MEAN / CFUs of BCG per ml of Lung Homogenate, MEDIAN / CFUs of BCG per ml of Lung Homogenate, individual mice M1-M5: day 61
splenocytes = experiment: OvA-induced proliferation of splenocytes of OvA-immunized mice; type: in vivo; settings: for Proliferation of splenocytes, Spontaneous, cpm, M ± SD / Proliferation of splenocytes, SI / Proliferation of splenocytes, cpm, M ± SD: OvA/FA
Protocol: Assessment of Mitogen- and Antigen-Induced Proliferation: […] Antigen-specific proliferation was studied by stimulating thymocytes and splenoctyes in vitro with different concentrations of OvA for 96 h. Twenty (20) to twenty-four (24) hours prior to completion of incubation, 3H-labeled thymidine (5 μCi/ml) was added to the cells. The cells were then transferred to fiberglass filters with a Titertek® semi-automatic cell harvester. Thymidine uptake was measured using a RackBeta 1217 (Wallac) liquid scintillation β-counter. For quantitative analysis of proliferation, the stimulation index (SI) was calculated as a ratio of the intensity of label inclusion in the stimulated cells to that in non-stimulated cells.

[3] = 10.0 μg/kg per os, OvA 10 μg/ml
[4] = group 3: BCG + 0.01 μg SCV-07 D1-D5
[5] = group 4: BCG + 0.01 μg SCV-07 D1-D30
[6] = group 5: BCG + 0.01 μg SCV-07 D1-5, D7, 11, 14, 18, 21, 25, 28
[7] = group 6: BCG + 0.01 μg SCV-07 D6-D30
[8] = group 7: BCG + 0.20 μg SCV-07 D1-D5
[9] = group 8: BCG + 0.20 μg SCV-07 D1-D30
[10] = group 9: BCG + 0.20 μg SCV-07 D1-5, D7, 11, 14, 18, 21, 25, 28
[11] = group 10: BCG + 0.20 μg SCV-07 D6-D30
[12] = group 11: BCG + 2.0 μg SCV-07 D1-D5
[13] = group 12: BCG + 2.0 μg SCV-07 D1-D30
[14] = group 13: BCG + 2.0 μg SCV-07 D1-5, D7, 11, 14, 18, 21, 25, 28
[15] = group 14: BCG + 2.0 μg SCV-07 D6-D30
[16] = 10.0 μg/kg per os, OvA 50 μg/ml

## N[C@H](CCC(=O)N[C@@H](Cc1c[nH]c2ccccc12)C(=O)O)C(=O)O [SCV-07, γ-D-glutamyl-L-tryptophan]
[1]; 1.0 μg/kg i/p, OvA 1 μg/ml
  Production of IL-2 by splenocytes, % (% of control): 78.9%
[1]; 1.0 μg/kg i/p, OvA 10 μg/ml
  Production of IL-2 by splenocytes: 317.3 pg/mL
  Production of IL-2 by splenocytes, % (% of control): 214.8%
[1]; 1.0 μg/kg i/p, OvA 25 μg/ml
  Production of IL-2 by splenocytes: 363.1 pg/mL
  Production of IL-2 by splenocytes, % (% of control): 245.8%
[1]; 1.0 μg/kg i/p, OvA 100 μg/ml
  Production of IL-2 by splenocytes: 564.4 pg/mL
  Production of IL-2 by splenocytes, % (% of control): 382.1%
[1]; 1.0 μg/kg per os, OvA 0 μg/ml
  Production of IL-2 by splenocytes: 122.4 pg/mL
[1]; 1.0 μg/kg per os, OvA 1 μg/ml
  Production of IL-2 by splenocytes: 82.7 pg/mL
[1]; 1.0 μg/kg per os, OvA 10 μg/ml
  Production of IL-2 by splenocytes: 304.2 pg/mL
[1]; 1.0 μg/kg per os, OvA 25 μg/ml
  Production of IL-2 by splenocytes: 152.9 pg/mL
[1]; 1.0 μg/kg per os, OvA 100 μg/ml
  Production of IL-2 by splenocytes: 282.8 pg/mL
[1]; 10.0 μg/kg per os, OvA 0 μg/ml
  Production of IL-2 by splenocytes: 163 pg/mL
[1]; 10.0 μg/kg per os, OvA 1 μg/ml
  Production of IL-2 by splenocytes: 80.2 pg/mL
[1]; [3]
  Production of IL-2 by splenocytes: 305.4 pg/mL
[1]; 10.0 μg/kg per os, OvA 25 μg/ml
  Production of IL-2 by splenocytes: 287.2 pg/mL
[1]; 10.0 μg/kg per os, OvA 100 μg/ml
  Production of IL-2 by splenocytes: 478.2 pg/mL
[2]; about 8-10 μg/kg
  dose with optimal enhancing effect of SCV-07 for vaccination with BCG: 0.20 µg
[2]; [4]
  CFUs of BCG per ml of Lung Homogenate, MEAN: 5.0 log10 CFU per milliliter
  CFUs of BCG per ml of Lung Homogenate, MEDIAN: 4.9 log10 CFU per milliliter
  CFUs of BCG per ml of Lung Homogenate, individual mice M1-M5: 4.8 log10 CFU per milliliter (2×) and 5.3 log10 CFU per milliliter (2×) and 4.9 log10 CFU per milliliter
[2]; [5]
  CFUs of BCG per ml of Lung Homogenate, MEAN: 4.8 log10 CFU per milliliter
  CFUs of BCG per ml of Lung Homogenate, MEDIAN: 4.9 log10 CFU per milliliter
  CFUs of BCG per ml of Lung Homogenate, individual mice M1-M5: 5.1 log10 CFU per milliliter and 4.8 log10 CFU per milliliter and 5.0 log10 CFU per milliliter and 4.3 log10 CFU per milliliter
[2]; [6]
  CFUs of BCG per ml of Lung Homogenate, MEAN: 4.9 log10 CFU per milliliter
  CFUs of BCG per ml of Lung Homogenate, MEDIAN: 5.0 log10 CFU per milliliter
  CFUs of BCG per ml of Lung Homogenate, individual mice M1-M5: 5.1 log10 CFU per milliliter (2×) and 5.0 log10 CFU per milliliter and 4.6 log10 CFU per milliliter and 4.8 log10 CFU per milliliter
[2]; [7]
  CFUs of BCG per ml of Lung Homogenate, MEAN: 5.5 log10 CFU per milliliter
  CFUs of BCG per ml of Lung Homogenate, MEDIAN: 5.5 log10 CFU per milliliter
  CFUs of BCG per ml of Lung Homogenate, individual mice M1-M5: 5.4 log10 CFU per milliliter and 5.5 log10 CFU per milliliter (2×) and 5.7 log10 CFU per milliliter
[2]; [8]
  CFUs of BCG per ml of Lung Homogenate, MEAN: 4.9 log10 CFU per milliliter
  CFUs of BCG per ml of Lung Homogenate, MEDIAN: 5.0 log10 CFU per milliliter
  CFUs of BCG per ml of Lung Homogenate, individual mice M1-M5: 4.8 log10 CFU per milliliter (2×) and 5.0 log10 CFU per milliliter (2×) and 5.1 log10 CFU per milliliter
[2]; [9]
  CFUs of BCG per ml of Lung Homogenate, MEAN: 4.6 log10 CFU per milliliter
  CFUs of BCG per ml of Lung Homogenate, MEDIAN: 4.6 log10 CFU per milliliter
  CFUs of BCG per ml of Lung Homogenate, individual mice M1-M5: 4.5 log10 CFU per milliliter and 4.7 log10 CFU per milliliter (2×) and 4.6 log10 CFU per milliliter
[2]; [10]
  CFUs of BCG per ml of Lung Homogenate, MEAN: 4.8 log10 CFU per milliliter
  CFUs of BCG per ml of Lung Homogenate, MEDIAN: 4.8 log10 CFU per milliliter
  CFUs of BCG per ml of Lung Homogenate, individual mice M1-M5: 4.6 log10 CFU per milliliter and 4.4 log10 CFU per milliliter and 4.9 log10 CFU per milliliter and 5.1 log10 CFU per milliliter and 4.8 log10 CFU per milliliter
[2]; [11]
  CFUs of BCG per ml of Lung Homogenate, MEAN: 5.3 log10 CFU per milliliter
  CFUs of BCG per ml of Lung Homogenate, MEDIAN: 5.3 log10 CFU per milliliter
  CFUs of BCG per ml of Lung Homogenate, individual mice M1-M5: 5.4 log10 CFU per milliliter and 5.2 log10 CFU per milliliter
[2]; [12]
  CFUs of BCG per ml of Lung Homogenate, MEAN: 5.0 log10 CFU per milliliter
  CFUs of BCG per ml of Lung Homogenate, MEDIAN: 5.1 log10 CFU per milliliter
  CFUs of BCG per ml of Lung Homogenate, individual mice M1-M5: 5.1 log10 CFU per milliliter (3×) and 4.8 log10 CFU per milliliter (2×)
[2]; [13]
  CFUs of BCG per ml of Lung Homogenate, MEAN: 5.0 log10 CFU per milliliter
  CFUs of BCG per ml of Lung Homogenate, MEDIAN: 5.1 log10 CFU per milliliter
  CFUs of BCG per ml of Lung Homogenate, individual mice M1-M5: 5.1 log10 CFU per milliliter and 4.8 log10 CFU per milliliter and 5.3 log10 CFU per milliliter (2×) and 4.6 log10 CFU per milliliter
[2]; [14]
  CFUs of BCG per ml of Lung Homogenate, MEAN: 4.9 log10 CFU per milliliter
  CFUs of BCG per ml of Lung Homogenate, MEDIAN: 4.8 log10 CFU per milliliter
  CFUs of BCG per ml of Lung Homogenate, individual mice M1-M5: 4.8 log10 CFU per milliliter (2×) and 4.7 log10 CFU per milliliter and 5.1 log10 CFU per milliliter and 5.3 log10 CFU per milliliter
[2]; [15]
  CFUs of BCG per ml of Lung Homogenate, MEAN: 5.4 log10 CFU per milliliter
  CFUs of BCG per ml of Lung Homogenate, MEDIAN: 5.4 log10 CFU per milliliter
  CFUs of BCG per ml of Lung Homogenate, individual mice M1-M5: 5.3 log10 CFU per milliliter (2×) and 5.4 log10 CFU per milliliter and 5.5 log10 CFU per milliliter
splenocytes; OvA/Alum, data not shown
  proliferation of splenocytes versus control group: No significant differences
splenocytes; 0.1 μg/kg i/p
  Proliferation of splenocytes, Spontaneous, cpm, M ± SD: 10726 ± 1947 cpm
splenocytes; 0.1 μg/kg i/p, OvA 10 μg/ml
  Proliferation of splenocytes, SI: 1.09
  Proliferation of splenocytes, cpm, M ± SD: 11683 ± 2285 cpm
splenocytes; 0.1 μg/kg i/p, OvA 50 μg/ml
  Proliferation of splenocytes, SI: 1.32
  Proliferation of splenocytes, cpm, M ± SD: 14195 ± 3304 cpm
splenocytes; 0.1 μg/kg per os
  Proliferation of splenocytes, Spontaneous, cpm, M ± SD: 8786 ± 1259 cpm
splenocytes; 0.1 μg/kg per os, OvA 10 μg/ml
  Proliferation of splenocytes, SI: 1.29
  Proliferation of splenocytes, cpm, M ± SD: 11304 ± 1317 cpm
splenocytes; 0.1 μg/kg per os, OvA 50 μg/ml
  Proliferation of splenocytes, SI: 1.36
  Proliferation of splenocytes, cpm, M ± SD: 11923 ± 1623 cpm
splenocytes; 1.0 μg/kg i/p
  Proliferation of splenocytes, Spontaneous, cpm, M ± SD: 9760 ± 1650 cpm
splenocytes; 1.0 μg/kg i/p, OvA 10 μg/ml
  Proliferation of splenocytes, SI: 1.05
  Proliferation of splenocytes, cpm, M ± SD: 10260 ± 2808 cpm
splenocytes; 1.0 μg/kg i/p, OvA 50 μg/ml
  Proliferation of splenocytes, SI: 1.67
  Proliferation of splenocytes, cpm, M ± SD: 16313 ± 1057 cpm
splenocytes; 1.0 μg/kg per os
  Proliferation of splenocytes, Spontaneous, cpm, M ± SD: 7013 ± 1698 cpm
splenocytes; 1.0 μg/kg per os, OvA 10 μg/ml
  Proliferation of splenocytes, SI: 1.26
  Proliferation of splenocytes, cpm, M ± SD: 8864 ± 2675 cpm
splenocytes; 1.0 μg/kg per os, OvA 50 μg/ml
  Proliferation of splenocytes, SI: 1.49
  Proliferation of splenocytes, cpm, M ± SD: 10457 ± 1740 cpm
splenocytes; 10.0 μg/kg per os
  Proliferation of splenocytes, Spontaneous, cpm, M ± SD: 10665 ± 887 cpm
splenocytes; [3]
  Proliferation of splenocytes, SI: 1.27
  Proliferation of splenocytes, cpm, M ± SD: 13585 ± 1102 cpm
splenocytes; [16]
  Proliferation of splenocytes, SI: 1.21
  Proliferation of splenocytes, cpm, M ± SD: 12903 ± 881 cpm
